From publication PMC11855827, “High-Throughput Screening of Five Compound Libraries for Anthelmintic Activity and Toxicity Leads to the Discovery of Two Flavonoid Compounds” (International Journal of Molecular Sciences, 2025)
Where a name gives a salt, the structure may show the parent alone. Read-outs that look alike come from different tables or passages of the source.

System: C. elegans
Assay: microbe, parasite or virus in culture
Settings: Caenorhabditis elegans
[1] = 0 h, read-out: Percentage of motility inhibition 0 h, Table S2, C. elegans SS assay, 110 μM, 0 h, averages of 4 data points
[2] = 24 h, read-out: Percentage of motility inhibition 24 h, Table S2, C. elegans SS assay, 110 μM, 24 h, averages of 4 data points
[3] = 0 h, read-out: Percentage of motility inhibition 0 h
[4] = 24 h, read-out: Percentage of motility inhibition 24 h

| Compound | inhibition at 110 µM [1] [%] | inhibition at 110 µM [2] [%] | inhibition at 110 µM [3] [%] | inhibition at 110 µM [4] [%] |
| --- | --- | --- | --- | --- |
| O=C(N[C@H](CO)[C@H](O)c1ccc([N+](=O)[O-])cc1)C(Cl)Cl [Chloramphenicol] | 6 | 2 |  |  |
| CC(C)=CCC[C@@H](C)[C@@H]1CC[C@]2(C)C3=C(CC[C@@]12C)[C@@]1(C)CC[C@H](O)C(C)(C)[C@@H]1CC3 [Euphol] | 0 | 41 |  |  |
| O=C1O[C@H]([C@@H](O)CO)C(O)=C1O [L-Ascorbic acid] | 5 | 9 |  |  |
| O=C1C=CC(=O)N1 [Maleimide] | 25 | 32 |  |  |
| C[C@@H]1O[C@@H](O[C@H]2C(=O)c3c(O)cc(O)cc3O[C@@H]2c2ccc(O)c(O)c2)[C@H](O)[C@H](O)[C@H]1O [Astilbin] |  |  | 31 | 0 |
| C/C=C(/C)C(=O)O[C@H]1[C@H](OC(C)=O)[C@]2(CO)[C@H](O)C[C@]3(C)C(=CC[C@@H]4[C@@]5(C)CC[C@H](O[C@@H]6O[C@H](C(=O)O)[C@@H](O[C@@H]7O[C@H](CO)[C@@H](O)[C@H](O)[C@H]7O)[C@H](O)[C@H]6O[C@@H]6O[C@H](CO)[C@@H](O)[C@H](O)[C@H]6O)[C@](C)(CO)[C@@H]5CC[C@]43C)[C@@H]2CC1(C)C [Escin IB] | 0 | 0 |  |  |
| C[C@@H]1C[C@@H](O)[C@@]2(O)[C@@]13C[C@@H](OC(=O)[C@H]3O)[C@](C)(O)[C@@]21COC1=O [Anisatin] | 0 | 20 |  |  |
| COc1cc(C(=O)O[C@H]2[C@@H]3C=CO[C@@H](O[C@@H]4O[C@H](CO)[C@@H](O)[C@H](O)[C@H]4O)[C@@H]3[C@@]3(CO)O[C@@H]23)ccc1O [Picroside II] | 0 | 13 |  |  |
| C/C=C1/C[C@@H](C)[C@@](C)(O)C(=O)OCC2=CC[N+]3([O-])CC[C@@H](OC1=O)[C@@H]23 (stereo partly shown) [Senecionine N‐oxide] | 39 | 43 |  |  |
| COc1ccc(-c2oc3cc(OC)c(OC)c(O)c3c(=O)c2OC)cc1O [Casticin] |  |  | 9 | 0 |
| Oc1cc(O)c2c(c1)O[C@@H](c1cc(O)c(O)c(O)c1)[C@H](O)C2 [(‐)‐Gallocatechin] |  |  | 43 | 5 |
| C=C1C=CC(C(C)C)CC1 (stereo not drawn) [β-Phellandrene] | 17 | 20 |  |  |
| Cc1cc(CCCOc2c(C)cc(-c3noc(C(F)(F)F)n3)cc2C)on1 [Pleconaril] | 4 | 14 |  |  |
| COc1ccc2c(c1OC)CN(C)CCc1cc3c(cc1C(=O)C2)OCO3 [Allocryptopine] | 11 | 18 |  |  |
| O=[N+]([O-])c1cncn1CCN1CCOCC1 [Nimorazole] | 0 | 0 |  |  |
| C[C@@H]1C(=O)O[C@H]2C[C@@]34[C@H]5C[C@@H](C(C)(C)C)[C@]36[C@@H](OC(=O)[C@@H]6O)O[C@@]4(C(=O)O5)[C@]21O [Ginkgolide A] | 2 | 8 |  |  |
| CC[C@H]1OC(=O)[C@H](C)[C@@H](O[C@H]2C[C@@](C)(OC)[C@@H](O)[C@H](C)O2)[C@H](C)[C@@H](O[C@@H]2O[C@H](C)C[C@H](N(C)C)[C@H]2O)[C@](C)(O)C[C@@H](C)CN(C)[C@H](C)[C@@H](O)[C@]1(C)O [Azithromycin] | 23 | 37 |  |  |
| N[C@@H](CS)C(=O)O [L-Cysteine] | 4 | 7 |  |  |
| CC(C)=CCC[C@](C)(O)[C@H]1CC[C@]2(C)[C@@H]1[C@H](O)C[C@@H]1[C@@]3(C)CC[C@H](O[C@@H]4O[C@H](CO)[C@@H](O)[C@H](O)[C@H]4O)C(C)(C)[C@@H]3CC[C@]12C [Ginsenoside Rh2] | 34 | 38 |  |  |
| C[C@@H]1O[C@@H](O[C@H]2[C@H](O[C@H]3CC[C@]4(C)[C@H]5CC=C6[C@@H]7CC(C)(C)CC[C@]7(C(=O)O[C@@H]7O[C@H](CO[C@@H]8O[C@H](CO)[C@@H](O[C@@H]9O[C@@H](C)[C@H](O)[C@@H](O)[C@H]9O)[C@H](O)[C@H]8O)[C@@H](O)[C@H](O)[C@H]7O)CC[C@@]6(C)[C@]5(C)CC[C@H]4C3(C)C)OC[C@H](O)[C@@H]2O)[C@H](O)[C@H](O)[C@H]1O [Hederasaponin B] | 11 | 3 |  |  |
| CN1Cc2c(ccc3c2OCO3)[C@@H]2[C@H]1c1cc3c(cc1C[C@@H]2O)OCO3 [Chelidonine] | 0 | 0 |  |  |
| C=C[C@]1(C)C[C@@H](OC(=O)CO)[C@]2(C)[C@H](C)CC[C@]3(CCC(=O)[C@H]32)[C@@H](C)[C@@H]1O [Pleuromutilin] | 33 | 10 |  |  |
| CC(C)(C)C(=O)OCOP(=O)(COCCn1cnc2c(N)ncnc21)OCOC(=O)C(C)(C)C [Adefovir dipivoxil] | 28 | 14 |  |  |
| CC(C)OC(=O)[C@H](C)N[P@](=O)(OC[C@H]1O[C@@H](n2ccc(=O)[nH]c2=O)[C@](C)(F)[C@@H]1O)Oc1ccccc1 [PSI‐7977] | 6 | 11 |  |  |
| N[C@@H](CCC(=O)O)C(=O)O [L-Glutamic acid] | 3 | 1 |  |  |
| CC1(C)S[C@@H]2[C@H](NC(=O)Cc3ccccc3)C(=O)N2[C@H]1C(=O)O [Penicillin G s odium salt] | 16 | 22 |  |  |
| O=c1[nH]cnc2c1ncn2[C@H]1CC[C@@H](CO)O1 [Didanosine] | 22 | 7 |  |  |

| Compound | inhibition at 110 µM [1] [%] | inhibition at 110 µM [2] [%] | inhibition at 110 µM [3] [%] | inhibition at 110 µM [4] [%] |
| --- | --- | --- | --- | --- |
| CCCCCCCCCCCCCCCCCC(=O)O [Stearic acid] | 0 | 1 |  |  |
| C/C=C(/C)C(=O)O[C@H]1C(C)=C[C@]23C(=O)[C@@H](C=C(CO)[C@@H](O)[C@]12O)[C@H]1[C@@H](C[C@H]3C)C1(C)C [Ingenol Mebutate] | 1 | 0 |  |  |
| C=C[C@](C)(O)CC[C@@H]1[C@@]2(C)CCCC(C)(C)[C@@H]2CC[C@@]1(C)O [Sclareol] | 28 | 10 |  |  |
| CC(C)/N=c1\cc2n(-c3ccc(Cl)cc3)c3ccccc3nc-2cc1Nc1ccc(Cl)cc1 [Clofazimine] | 6 | 7 |  |  |
| O=C(O)CCCc1c[nH]c2ccccc12 [Indole‐3‐butyric acid] | 2 | 0 |  |  |
| CCn1cc(C(=O)O)c(=O)c2cnc(N3CCCC3)nc21 [Piromidic acid] | 9 | 8 |  |  |
| COc1c(N2CCNC(C)C2)c(F)cc2c(=O)c(C(=O)O)cn(C3CC3)c12 (stereo not shown) [Gatifloxaci n] | 0 | 0 |  |  |
| CC(C)(O/N=C(\C(=O)N[C@@H]1C(=O)N2C(C(=O)[O-])=C(C[n+]3ccccc3)CS[C@H]12)c1csc(N)n1)C(=O)O [Ceftazidime] | 37 | 28 |  |  |
| C[C@@H]1CCC=C2C(=O)C[C@H]3OOC(C)(C)[C@H]3[C@]21C [Nardosinone] | 0 | 13 |  |  |
| COc1c(-c2ccc3cc(NS(C)(=O)=O)ccc3c2)cc(-n2ccc(=O)[nH]c2=O)cc1C(C)(C)C [ABT‐333] | 40 | 0 |  |  |
| CC1CCc2c(N3CCC(O)CC3)c(F)cc3c(=O)c(C(=O)O)cn1c23 (stereo not shown) [Nadifloxacin] | 0 | 0 |  |  |
| CC(=O)Oc1cccc2c1C(=O)c1c(OC(C)=O)cc(C(=O)O)cc1C2=O [Diacerein] | 0 | 8 |  |  |
| O=C(O)c1ccncc1 [Isonicotinic acid] | 0 | 0 |  |  |
| C/C(=C\CC[C@@H](C)[C@H]1CC[C@@]2(C)C3=CC[C@H]4C(C)(C)[C@@H](O)CC[C@]4(C)C3=CC[C@]12C)CO [Ganoderol B] | 5 | 35 |  |  |
| Nc1ccc(S(N)(=O)=O)cc1 [Sulfanilamide] | 21 | 7 |  |  |
| Cc1cc2nc3c(=O)[nH]c(=O)nc-3n(C[C@H](O)[C@H](O)[C@H](O)CO)c2cc1C [Riboflavin] | 3 | 6 |  |  |
| C=C1C[C@@]23CC[C@H]4[C@@](C)(CCC[C@@]4(C)C(=O)O)[C@@H]2CC[C@@H]1C3 [Kaurenoic acid] | 0 | 7 |  |  |
| C[C@H]1[C@H](C)CC[C@]2(CO)CC[C@]3(C)C(=CC[C@@H]4[C@@]5(C)CC[C@H](O)C(C)(C)[C@@H]5CC[C@]43C)[C@H]12 [Uvaol] | 19 | 2 |  |  |
| O=C(Nc1ccccc1F)N[C@H]1N=C(c2ccccc2)c2ccccc2NC1=O [RSV604] | 37 | 15 |  |  |
| COC(=O)Nc1nc2ccc(Sc3ccccc3)cc2[nH]1 [Fenbendazole] | 8 | 14 |  |  |
| CC(C)C1=Cc2ccc3c(c2C(=O)C1=O)CCCC3(C)C [Miltirone] | 0 | 36 |  |  |
| CC(=O)C1=C(O)[C@@H]2[C@H]3c4c[nH]c5cccc(c45)C[C@H]3C(C)(C)N2C1=O [Cyclopiazonic acid] | 6 | 2 |  |  |
| CC(=O)O[C@@H]1C[C@H](O)[C@@]23CO[C@@H](O)[C@]1(C)[C@@H]2C[C@@H](O)[C@]1(C)[C@@H]3C(=O)[C@H](OC(C)=O)[C@@]2(C)[C@H](c3ccoc3)C[C@H]3O[C@]321 [Toosendanin] | 0 | 7 |  |  |
| O=C(O)CCCCCCCC(=O)O [Azelaic acid] | 0 | 0 |  |  |
| O=c1cc(-c2ccc(O)cc2)oc2cc(O)c([C@@H]3O[C@H](CO)[C@@H](O)[C@H](O)[C@H]3O)c(O)c12 [Isovitexin] | 11 | 6 |  |  |
| Cc1ncc(COP(=O)(O)O)c(C=O)c1O [Pyridoxal phosphate] | 11 | 4 |  |  |
